The structures appear in SMILES notation. Positions of bridges follow the written chain, without caps; N, C: chain ends. Non-standard residues stand in square brackets, D forms with d. Residues, ends and D or L forms follow the SMILES beside them. *: point of attachment. NMeAbu(3,3-F2-piperidino) = CN[C@@H](CCN1CCCC(F)(F)C1)C(=O)O; hPhe(3-Cl-4-CF3) = N[C@@H](CCc1ccc(C(F)(F)F)c(Cl)c1)C(=O)O; hPhe(4-CF3) = N[C@@H](CCc1ccc(C(F)(F)F)cc1)C(=O)O; NMePhe(3-OMe) = CN[C@@H](Cc1cccc(OC)c1)C(=O)O; NMePhe(3-Cl) = CN[C@@H](Cc1cccc(Cl)c1)C(=O)O; NMePhe(4-Cl) = CN[C@@H](Cc1ccc(Cl)cc1)C(=O)O; NMePhe(4-Me) = CN[C@@H](Cc1ccc(C)cc1)C(=O)O; NMePhe(2-Me) = CN[C@@H](Cc1ccccc1C)C(=O)O; NMeGly(cPent) = CN[C@H](C(=O)O)C1CCCC1; Phe(3-I) = N[C@@H](Cc1cccc(I)c1)C(=O)O; Phe(4-F) = N[C@@H](Cc1ccc(F)cc1)C(=O)O; NMeCha = CN[C@@H](CC1CCCCC1)C(=O)O; NEtLeu = CCN[C@@H](CC(C)C)C(=O)O; NMeF = CN[C@@H](Cc1ccccc1)C(=O)O; NMeI = CC[C@H](C)[C@H](NC)C(=O)O; dNMeF = CN[C@H](Cc1ccccc1)C(=O)O; NMeE = CN[C@@H](CCC(=O)O)C(=O)O; NMeD = CN[C@@H](CC(=O)O)C(=O)O; NMeL = CN[C@@H](CC(C)C)C(=O)O; NMeV = CN[C@H](C(=O)O)C(C)C; d(β3hA) = C[C@@H](N)CC(=O)O; Pip = O=C(O)[C@@H]1CCCCN1; NMeA = CN[C@@H](C)C(=O)O; NMeAib = CNC(C)(C)C(=O)O; Nle = CCCC[C@H](N)C(=O)O; Piperidide = C1CCN(*)CC1; Pyrrolidide = C1CCN(*)C1; dNMeA = CN[C@H](C)C(=O)O; Ac5c = NC1(C(=O)O)CCCC1; Aze = O=C(O)[C@@H]1CCN1; βAla = NCCC(=O)O; Sar = CNCC(=O)O

This is an account of results in US12371454B2, “Cyclic peptide compound having Kras inhibitory action” (priority 2019, dated 2025).

The target of this experiment is T1, Kras and SOS1 (biotin-tagged human Kras loaded with GDP, His-tagged human SOS1) (Homo sapiens, UniProt P01116, G12D).
T1 construct: made in house; host or cells: E. coli (stated for Kras only)
T1 sequence (P01116 1-188 isoform P01116-2 G12D): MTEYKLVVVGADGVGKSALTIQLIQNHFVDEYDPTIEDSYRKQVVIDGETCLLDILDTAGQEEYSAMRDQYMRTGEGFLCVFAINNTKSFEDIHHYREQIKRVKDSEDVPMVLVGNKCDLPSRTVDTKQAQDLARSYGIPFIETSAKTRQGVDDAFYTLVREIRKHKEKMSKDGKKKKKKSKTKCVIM
The experiment is described as follows: Protein-protein interaction inhibition between Kras and SOS1 (KrasGl2D-SOS PPI) using AlphaScreen. The note with it: AlphaScreen; biotin-tagged human Kras loaded with GDP, His-tagged human SOS1; read-out: KRAS G12D-SOS PPI IC50. It counts as binding. Summed up: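 Read-out is acceptor-bead light at 520-620 nm, arising when 680 nm-irradiated nickel donor beads pass singlet oxygen to streptavidin acceptors. The bead pair links His-tagged SOS1 with biotin-tagged, GDP-bound Kras from E. coli.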
Usually IC50 stands for the point on the concentration scale where inhibition reaches its midpoint. Take `CC[C@H](C)[C@@H]1NC(=O)[C@H](CC(C)C)N(C)C(=O)C[C@@H](C(=O)N(C)C)N(C)C(=O)[C@H](C2CCCC2)N(C)C(=O)[C@H](C(C)C)NC(=O)[C@H](CCN2CCCC(F)(F)C2)N(C)C(=O)[C@H](CCc2ccc(C(F)(F)F)c(Cl)c2)NC(=O)CN(C)C(=O)[C@H](CC2CCCCC2)N(C)C(=O)[C@@H]2CCN2C(=O)[C@H](C)N(C)C1=O` [Compound 389] ([NMeL]I[NMeA][Aze][NMeCha][Sar][hPhe(3-Cl-4-CF3)][NMeAbu(3,3-F2-piperidino)]V[NMeGly(cPent)][NMeD]-NMe2; lactam N-11): the IC50 worked out at 45 nM. On to `CC[C@H](C)[C@@H]1NC(=O)[C@@H]2CCCCN2C(=O)C[C@@H](C)NC(=O)[C@H](CC(C)C)N(C)C(=O)C2(CCCC2)NC(=O)[C@@H]2CCCN2C(=O)[C@H](CCc2ccc(C(F)(F)F)cc2)NC(=O)CN(C)C(=O)[C@H](CC2CCCCC2)N(C)C(=O)CN(C)C(=O)CN(C)C1=O` [Compound 1097] (cyclo([Ac5c][NMeL][d(β3hA)][Pip]I[Sar][Sar][NMeCha][Sar][hPhe(4-CF3)]P)), for which the IC50 was 230 nM. As for `CCCC[C@@H]1NC(=O)[C@H](Cc2cccc(I)c2)NC(=O)CN(C)C(=O)[C@H](Cc2ccc(Cl)cc2)N(C)C(=O)CN(C)C(=O)CN(C)C(=O)[C@H]([C@@H](C)CC)NC(=O)[C@H](CC(C)C)N(C)C(=O)C[C@@H](C(=O)N2CCCCC2)N(C)C(=O)[C@H](CC(C)C)NC(=O)[C@H](Cc2cccc(Cl)c2)N(C)C1=O` [Compound 1044] ([NMeL]I[Sar][Sar][NMePhe(4-Cl)][Sar][Phe(3-I)][Nle][NMePhe(3-Cl)]L[NMeD]-Piperidide; lactam N-11), the IC50 came out at 55 nM. On to `CC[C@H](C)[C@@H]1NC(=O)[C@H](C)N(C)C(=O)C[C@@H](C(=O)N2CCCCC2)N(C)C(=O)[C@H](C(C)C)N(C)C(=O)C2(CCCC2)NC(=O)[C@@H]2CCCN2C(=O)[C@H](CCc2ccc(C(F)(F)F)c(Cl)c2)NC(=O)[C@@H](C)N(C)C(=O)[C@H](CC2CCCCC2)N(C)C(=O)[C@@H]2CCN2C(=O)[C@H](C)N(C)C1=O` [Compound 1103] ([NMeA]I[NMeA][Aze][NMeCha][dNMeA][hPhe(3-Cl-4-CF3)]P[Ac5c][NMeV][NMeD]-Piperidide; lactam N-11), for which the IC50 came out at 16 nM. For the compound `CCCC[C@@H]1NC(=O)[C@H](Cc2ccc(F)cc2)NC(=O)CN(C)C(=O)[C@H](Cc2ccc(Cl)cc2)N(C)C(=O)CN(C)C(=O)CN(C)C(=O)[C@H]([C@@H](C)CC)NC(=O)[C@H](CC(C)C)N(C)C(=O)C[C@@H](C(=O)N2CCCCC2)N(C)C(=O)[C@H](CC(C)C)NC(=O)C(C)(C)N(C)C1=O` [Compound 1305] ([NMeL]I[Sar][Sar][NMePhe(4-Cl)][Sar][Phe(4-F)][Nle][NMeAib]L[NMeD]-Piperidide; lactam N-11), the IC50 was 240 nM.

For `CC[C@H](C)[C@@H]1NC(=O)[C@H](C)N(C)C(=O)C[C@@H](C(=O)N2CCCCC2)NC(=O)[C@H](CC(C)C)N(C)C(=O)[C@H](Cc2ccccc2)N(C)C(=O)[C@H](CC(C)C)NC(=O)[C@H](CCc2ccc(C(F)(F)F)c(Cl)c2)NC(=O)CN(C)C(=O)[C@H](Cc2ccc(Cl)cc2)N(C)C(=O)CN(C)C(=O)CN(C)C1=O` [Compound 861] ([NMeA]I[Sar][Sar][NMePhe(4-Cl)][Sar][hPhe(3-Cl-4-CF3)]L[NMeF][NMeL]D-Piperidide; lactam N-11), the IC50 turned out to be 4.5 nM. For `CC[C@H](C)[C@@H]1NC(=O)[C@H](CC(C)C)N(C)C(=O)C[C@@H](C(=O)N2CCCCC2)N(C)C(=O)[C@H](CC(C)C)NC(=O)C(C)(C)N(C)C(=O)[C@H](Cc2ccccc2)NC(=O)[C@H](Cc2cccc(I)c2)NC(=O)CN(C)C(=O)[C@H](Cc2ccc(C)cc2)N(C)C(=O)[C@@H]2CCN2C(=O)[C@H](C)N(C)C1=O` [Compound 1015] ([NMeL]I[NMeA][Aze][NMePhe(4-Me)][Sar][Phe(3-I)]F[NMeAib]L[NMeD]-Piperidide; lactam N-11), the IC50 amounted to 18 nM. To `CC[C@H](C)[C@@H]1NC(=O)[C@H](CC(C)C)N(C)C(=O)C[C@@H](C(=O)N(C)C)N(C)C(=O)[C@H](C2CCCC2)N(C)C(=O)[C@H](C)NC(=O)[C@H](C)N(C)C(=O)[C@H](CCc2ccc(C(F)(F)F)c(Cl)c2)NC(=O)CN(C)C(=O)[C@H](CC2CCCCC2)N(C)C(=O)[C@@H]2CCN2C(=O)[C@H](C)N(C)C1=O` [Compound 993] ([NMeL]I[NMeA][Aze][NMeCha][Sar][hPhe(3-Cl-4-CF3)][NMeA]A[NMeGly(cPent)][NMeD]-NMe2; lactam N-11) belongs 16 nM.

On to `CC[C@H](C)[C@@H]1NC(=O)[C@H](CC(C)C)N(C)C(=O)C[C@@H](C)NC(=O)[C@H](C(C)C)N(C)C(=O)C2(CCCC2)NC(=O)[C@@H]2CCCN2C(=O)[C@H](CCc2ccc(C(F)(F)F)c(Cl)c2)NC(=O)CN(C)C(=O)[C@H](Cc2ccccc2C)N(C)C(=O)CN(C)C(=O)CN(C)C1=O` [Compound 1614] (cyclo([Ac5c][NMeV][d(β3hA)][NMeL]I[Sar][Sar][NMePhe(2-Me)][Sar][hPhe(3-Cl-4-CF3)]P)), for which the IC50 turned out to be 51 nM. To `CC(C)C[C@H]1C(=O)N[C@@H](CO)C(=O)N(C)[C@@H](C)C(=O)N2CC[C@H]2C(=O)N(C)[C@@H](CC2CCCCC2)C(=O)N(C)CC(=O)N[C@@H](CCc2ccc(C(F)(F)F)c(Cl)c2)C(=O)N2CCC[C@H]2C(=O)NC2(CCCC2)C(=O)N(C)[C@@H](C(C)C)C(=O)N(C)[C@H](C(=O)N2CCCCC2)CC(=O)N1C` [Compound 1768] ([NMeL]S[NMeA][Aze][NMeCha][Sar][hPhe(3-Cl-4-CF3)]P[Ac5c][NMeV][NMeD]-Piperidide; lactam N-11) belongs 140 nM; to `CC[C@H](C)[C@@H]1NC(=O)[C@H](CC(C)C)N(CC)C(=O)C[C@@H](C(=O)N(C)C)N(C)C(=O)[C@H](C2CCCC2)N(C)C(=O)C2(CCCC2)NC(=O)[C@@H]2CCCN2C(=O)[C@H](CCc2ccc(C(F)(F)F)c(Cl)c2)NC(=O)CN(C)C(=O)[C@H](Cc2ccc(C)cc2)N(C)C(=O)[C@@H]2CCN2C(=O)[C@H](C)NC1=O` [Compound 1282] ([NEtLeu]IA[Aze][NMePhe(4-Me)][Sar][hPhe(3-Cl-4-CF3)]P[Ac5c][NMeGly(cPent)][NMeD]-NMe2; lactam N-11), 0.81 nM. `CC[C@H](C)[C@@H]1NC(=O)[C@H](CC(C)C)N(C)C(=O)C[C@@H](C(=O)N2CCCCC2)N(C)C(=O)[C@H]([C@@H](C)CC)N(C)C(=O)C2(CCCC2)NC(=O)[C@@H](Cc2ccccc2)N(C)C(=O)[C@H](CCc2ccc(C(F)(F)F)c(Cl)c2)NC(=O)CN(C)C(=O)[C@H](Cc2ccc(C)cc2)N(C)C(=O)[C@@H]2CCN2C(=O)[C@H](C)N(C)C1=O` [Compound 1989] ([NMeL]I[NMeA][Aze][NMePhe(4-Me)][Sar][hPhe(3-Cl-4-CF3)][dNMeF][Ac5c][NMeI][NMeD]-Piperidide; lactam N-11): the IC50 worked out at 460 nM. `CCCC[C@@H]1NC(=O)[C@H](Cc2cccc(I)c2)NC(=O)CN(C)C(=O)[C@H](Cc2ccc(C)cc2)N(C)C(=O)CN(C)C(=O)CN(C)C(=O)[C@H]([C@@H](C)CC)NC(=O)[C@H](CC(C)C)N(C)C(=O)C[C@@H](C(=O)N2CCCCC2)N(C)C(=O)[C@H](CC(C)C)NC(=O)[C@H](CCC(=O)N(C)C)N(C)C1=O` [Compound 2100, 3-[(3S,6S,9S,12S,18S,27S,30S,34S)-9-butyl-12-[(3-iodophenyl)methyl]-3,30-diisobutyl-1,7,16,19,22,25,31-heptamethyl-27-[(1S)-1-methylpropyl]-2,5,8,11,14,17,20,23,26,29,32-undecaoxo-34-(piperidine-1-carbonyl)-18-(p-tolylmethyl)-1,4,7,10,13,16,19,22,25,28,31-undecazacyclotetratriacont-6-yl]-N,N-dimethyl-propanamide] ([NMeL]I[Sar][Sar][NMePhe(4-Me)][Sar][Phe(3-I)][Nle][NMeE](NMe2)L[NMeD]-Piperidide; lactam N-11): the IC50 is 15 nM.

On to `CC[C@H](C)[C@@H]1NC(=O)[C@H](CC(C)C)N(C)C(=O)C[C@@H](C(=O)N(C)C)N(C)C(=O)[C@H]([C@@H](C)CC)N(C)C(=O)C2(CCCC2)NC(=O)[C@H](Cc2cccc(OC)c2)N(C)C(=O)[C@H](CCc2ccc(C(F)(F)F)c(Cl)c2)NC(=O)CN(C)C(=O)[C@H](Cc2ccc(C)cc2)N(C)C(=O)[C@@H]2CCN2C(=O)[C@H](C)N(C)C1=O` [Compound 1991] ([NMeL]I[NMeA][Aze][NMePhe(4-Me)][Sar][hPhe(3-Cl-4-CF3)][NMePhe(3-OMe)][Ac5c][NMeI][NMeD]-NMe2; lactam N-11), for which the IC50 came to 9.2 nM.

As to `CC[C@H](C)[C@@H]1NC(=O)[C@H](C)N(C)C(=O)C[C@@H](C(=O)N2CCCC2)NC(=O)[C@H](CC(C)C)N(C)C(=O)[C@H](Cc2ccccc2)N(C)C(=O)[C@H](CC(C)C)NC(=O)[C@H](Cc2cccc(I)c2)NC(=O)CN(C)C(=O)[C@H](Cc2ccc(Cl)cc2)N(C)C(=O)CN(C)C(=O)CN(C)C1=O` [Compound 884] ([NMeA]I[Sar][Sar][NMePhe(4-Cl)][Sar][Phe(3-I)]L[NMeF][NMeL]D-Pyrrolidide; lactam N-11), the IC50 amounted to 63 nM. For the compound `CC[C@H](C)[C@@H]1NC(=O)[C@H](CC(C)C)N(C)C(=O)CCNC(=O)[C@H](C(C)C)N(C)C(=O)C2(CCCC2)NC(=O)[C@@H]2CCCN2C(=O)[C@H](CCc2ccc(C(F)(F)F)c(Cl)c2)NC(=O)CN(C)C(=O)[C@H](CC2CCCCC2)N(C)C(=O)CN(C)C(=O)CN(C)C1=O` [Compound 979] (cyclo([Ac5c][NMeV][βAla][NMeL]I[Sar][Sar][NMeCha][Sar][hPhe(3-Cl-4-CF3)]P)), the IC50 stood at 37 nM. Regarding `CC[C@H](C)[C@@H]1NC(=O)[C@H](CC(C)C)N(C)C(=O)C[C@@H](C)NC(=O)[C@H](C2CCCC2)N(C)C(=O)C2(CCCC2)NC(=O)[C@H](C)NC(=O)[C@H](CCc2ccc(C(F)(F)F)c(Cl)c2)NC(=O)CN(C)C(=O)[C@H](Cc2ccc(C)cc2)N(C)C(=O)[C@@H]2CCN2C(=O)[C@H](C)N(C)C1=O` [Compound 1307] (cyclo(A[Ac5c][NMeGly(cPent)][d(β3hA)][NMeL]I[NMeA][Aze][NMePhe(4-Me)][Sar][hPhe(3-Cl-4-CF3)])), the IC50 was 2.7 nM.
